Patent US8741934B2, “Inhibitors of ion channels” (Pfizer Limited, priority 2007, dated 2014)

Legend:
[1] = target: T1, hSCN3A sodium channels (Homo sapiens, UniProt Q9NY46); experiment: hSCN3A electrophysiology, whole-cell patch-clamp or PatchXpress 7000, estimated IC-50 (Table B); assay type: cell-based; conditions: estimated IC-50; hSCN3A cells, whole-cell patch-clamp or PatchXpress 7000; read-out: SCN3A EIC-50
T1 construct: expressed in transfected cells
Procedure: Human Embryonic Kidney (HEK) cells were transfected with an hSCN3A construct using lipofectamine reagent (Invitrogen), using standard techniques. […] Clones were screened for expression using the whole-cell voltage-clamp technique.
HEK cells stably transfected with hSCN3A were maintained in DMEM medium supplemented with 10% heat-inactivated fetal bovine serum and 400 μg/ml G418 sulfate in an incubator at 37° C. with a humidified atmosphere of 10% CO2. […] For electrophysiological studies, cells were removed from the culture flask by brief trypsinization and replated at low density onto glass cover slips. Cells were typically used for electrophysiological experiments within 24 to 72 h after plating.
All recordings were made at room temperature (22-24° C.) using AXOPATCH 200B amplifiers and PCLAMP software (Axon Instruments, Burlingame, Calif.) or PatchXpress 7000 hardware and associated software (Axon Instruments, Burlingame, Calif.).
Current records were acquired at 20 to 50 KHz and filtered at 5 to 10 KHz.
HEK cells stably transfected with hSCN3A were viewed under Hoffman contrast optics and placed in front of an array of flow pipes emitting either control or compound-containing extracellular solutions. All compounds were dissolved in dimethyl sulfoxide to make 10 mM stock solutions, which were then diluted into extracellular solution to attain the final concentrations desired.
The voltage-dependence of inactivation was determined by applying a series of depolarizing prepulses (8 sec long in 10 mV increments) from a negative holding potential. The voltage was then immediately stepped to 0 mV to assess the magnitude of the sodium current. Currents elicited at 0 mV were plotted as a function of prepulse potential to allow estimation of the voltage midpoint of inactivation (V1/2). Cells were then voltage clamped at the empirically determined V1/2.
Compounds were tested for their ability to inhibit hSCN3A sodium channels by activating the channel with a 20 msec voltage step to 0 mV following an 8 second conditioning prepulse to the empirically determined V1/2 (Table B). Compound effect (% inhibition) was determined by difference in current amplitude before and after application of test compounds. […] Inhibition values <20% and >80% were excluded from the calculation.
In some cases electrophysiological assays were conducted with PatchXpress 7000 hardware and associated software (Molecular Devices Corp) (Table B). All assay buffers and solutions were identical to those used in conventional whole-cell voltage clamp experiments described above. hSCN3A cells were grown as above to 50%-80% confluency and harvested by trypsinization. Trypsinized cells were washed and resuspended in extracellular buffer at a concentration of 1×10^6 cells/ml. The onboard liquid handling facility of the PatchXpress was used for dispensing cells and application of test compounds. Determination of the voltage midpoint of inactivation was as described for conventional whole-cell recordings. Cells were then voltage-clamped to the empirically determined V1/2 and current was activated by a 20 msec voltage step to 0 mV.

[2] = target: T1, hSCN3A sodium channels; experiment: hSCN3A electrophysiology, Ionworks Quattro automated platform (Table C); assay type: cell-based; conditions: for inhibition at 3 µM: read-out: SCN3A % INHIB HTS IWQ 3 μM; for inhibition at 10 µM: read-out: SCN3A % INHIB HTS IWQ 10 μM
How it was run: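 HEK cells stably expressing hSCN3A were recorded in perforated-patch mode with 100 μg/ml amphotericin on Ionworks Quattro. The protocol used an inactivating step, a brief hyperpolarized partial recovery, then a depolarized test step. Inhibition was taken from current amplitude before versus after compound addition.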

T1 sequence (Q9NY46 whole entry): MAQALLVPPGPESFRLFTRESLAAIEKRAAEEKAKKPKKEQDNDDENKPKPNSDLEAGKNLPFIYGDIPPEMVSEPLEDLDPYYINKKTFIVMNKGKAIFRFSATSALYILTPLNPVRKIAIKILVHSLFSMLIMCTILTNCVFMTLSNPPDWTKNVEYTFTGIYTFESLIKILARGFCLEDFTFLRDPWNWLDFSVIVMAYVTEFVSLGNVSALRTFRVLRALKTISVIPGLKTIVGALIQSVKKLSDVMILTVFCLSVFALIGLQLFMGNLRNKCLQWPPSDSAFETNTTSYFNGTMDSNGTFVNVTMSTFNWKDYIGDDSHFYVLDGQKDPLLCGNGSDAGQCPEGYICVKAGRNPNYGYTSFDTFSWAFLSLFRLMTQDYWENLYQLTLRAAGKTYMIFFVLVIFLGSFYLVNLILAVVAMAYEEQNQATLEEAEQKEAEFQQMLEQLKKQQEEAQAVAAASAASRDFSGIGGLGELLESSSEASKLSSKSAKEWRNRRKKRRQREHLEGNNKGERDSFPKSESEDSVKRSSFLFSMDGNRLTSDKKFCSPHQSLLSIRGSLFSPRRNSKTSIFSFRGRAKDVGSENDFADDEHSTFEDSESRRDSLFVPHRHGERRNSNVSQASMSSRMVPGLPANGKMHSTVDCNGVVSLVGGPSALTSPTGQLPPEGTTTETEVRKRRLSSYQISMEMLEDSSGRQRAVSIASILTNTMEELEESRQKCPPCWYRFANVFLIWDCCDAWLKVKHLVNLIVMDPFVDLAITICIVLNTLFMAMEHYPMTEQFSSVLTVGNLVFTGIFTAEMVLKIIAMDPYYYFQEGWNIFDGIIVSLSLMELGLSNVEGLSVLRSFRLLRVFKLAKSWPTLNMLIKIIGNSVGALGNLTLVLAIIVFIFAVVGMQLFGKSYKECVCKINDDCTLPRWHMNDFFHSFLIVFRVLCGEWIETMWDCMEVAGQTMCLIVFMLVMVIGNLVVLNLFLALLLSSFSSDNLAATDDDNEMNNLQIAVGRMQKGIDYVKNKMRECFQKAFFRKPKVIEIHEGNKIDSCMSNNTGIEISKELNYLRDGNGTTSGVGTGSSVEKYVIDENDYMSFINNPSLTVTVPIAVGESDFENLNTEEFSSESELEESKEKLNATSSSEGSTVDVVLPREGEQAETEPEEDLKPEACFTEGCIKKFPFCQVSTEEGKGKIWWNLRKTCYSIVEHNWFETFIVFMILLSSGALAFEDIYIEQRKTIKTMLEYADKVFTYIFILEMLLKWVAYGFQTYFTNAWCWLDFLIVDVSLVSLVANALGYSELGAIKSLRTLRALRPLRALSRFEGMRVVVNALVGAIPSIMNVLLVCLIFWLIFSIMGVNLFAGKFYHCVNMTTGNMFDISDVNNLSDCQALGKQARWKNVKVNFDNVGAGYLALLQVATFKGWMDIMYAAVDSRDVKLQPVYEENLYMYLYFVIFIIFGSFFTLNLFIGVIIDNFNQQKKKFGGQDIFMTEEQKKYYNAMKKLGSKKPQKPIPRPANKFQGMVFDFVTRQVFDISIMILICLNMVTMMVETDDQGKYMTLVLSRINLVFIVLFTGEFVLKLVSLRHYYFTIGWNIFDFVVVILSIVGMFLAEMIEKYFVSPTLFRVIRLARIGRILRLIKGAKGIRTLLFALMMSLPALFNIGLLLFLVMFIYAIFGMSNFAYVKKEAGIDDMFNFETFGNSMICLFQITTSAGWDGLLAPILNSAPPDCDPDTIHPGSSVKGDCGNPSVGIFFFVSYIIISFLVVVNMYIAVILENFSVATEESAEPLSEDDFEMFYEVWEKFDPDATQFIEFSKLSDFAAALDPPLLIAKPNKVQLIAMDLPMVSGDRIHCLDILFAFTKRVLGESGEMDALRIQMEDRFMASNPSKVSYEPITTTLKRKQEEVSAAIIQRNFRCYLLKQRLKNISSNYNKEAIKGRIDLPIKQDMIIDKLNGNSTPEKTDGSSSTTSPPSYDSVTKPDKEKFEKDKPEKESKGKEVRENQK

| Structure (SMILES) | inhibition at 3 µM ([2]; 3 μM compound) [%] | inhibition at 10 µM ([2]; 10 μM compound) [%] | further results |
| --- | --- | --- | --- |
| O=C(NCc1ccc(OC(F)(F)F)c(F)c1)c1ccc(S(=O)(=O)Nc2nccs2)cc1F [Example 328, 2-Fluoro-N-[3-fluoro-4-(trifluoromethoxy)benzyl]-4-[(1,3-thiazol-2-ylamino)sulfonyl] benzamide] |  |  | IC50 [1]: 0.12 µM |
| O=C(NCc1ccc(-n2cccn2)cc1)c1ccc(S(=O)(=O)Nc2nccs2)cc1 [Example 60, N-[4-(1H-pyrazol-1-yl)benzyl]-4-[(1,3-thiazol-2-ylamino)sulfonyl]benzamide] |  |  | IC50 [1]: 1.5 µM |
| COc1ccccc1CCNC(=O)c1ccc(S(=O)(=O)Nc2nccs2)cc1 [Example 165, N-[2-(2-methoxyphenyl)ethyl]-4-[(1,3-thiazol-2-ylamino)sulfonyl]benzamide] |  |  | IC50 [1]: 4.18 µM |
| O=C(NCc1ccc(OC(F)(F)F)c(F)c1)c1ccc(S(=O)(=O)Nc2ncc(Cl)s2)c(Cl)c1 [Example 365, 3-Chloro-4-{[(5-chloro-1,3-thiazol-2-yl)amino]sulfonyl}-N-[3-fluoro-4-(trifluoromethoxy)benzyl]benzamide] |  |  | IC50 [1]: 0.6 µM |
| O=C(NCc1ccc(Cl)c(F)c1)c1ccc(S(=O)(=O)Nc2nccs2)cc1F [Example 334, N-(4-chloro-3-fluorobenzyl)-2-fluoro-4-[(1,3-thiazol-2-ylamino)sulfonyl] benzamide] |  |  | IC50 [1]: 0.34 µM |
| O=C(NCc1ccc(F)c(C2CC2)c1)c1ccc(S(=O)(=O)Nc2nccs2)cc1 [Example 54, N-(3-cyclopropyl-4-fluorobenzyl)-4-[(1,3-thiazol-2-ylamino)sulfonyl]benzamide] |  |  | IC50 [1]: 0.12 µM |
| O=C(NCc1ccc(F)cc1C(F)(F)F)c1ccc(S(=O)(=O)Nc2nccs2)cc1 [Example 80, N-[4-fluoro-2-(trifluoromethyl)benzyl]-4-[(1,3-thiazol-2-ylamino)sulfonyl]benzamide] |  |  | IC50 [1]: > 0.1 µM |
| O=C(NCc1ccc(OC(F)(F)F)cc1)c1ccc(S(=O)(=O)Nc2nccs2)c(F)c1 [Example 301, 3-Fluoro-4-[(1,3-thiazol-2-ylamino)sulfonyl]-N-[4-(trifluoromethoxy)benzyl]benzamide] |  |  | IC50 [1]: 0.18 µM |
| Cc1ccc(C2CCCCN2C(=O)c2ccc(S(=O)(=O)Nc3nccs3)cc2)cc1 (stereo not drawn) [Example 207, 4-{[2-(4-Methylphenyl)piperidin-l-yl]carbonyl}-N-1,3-thiazol-2-yl-benzenesulfonamide] |  |  | SCN3A % INHIB HTS IWQ 3 μM ([2]; 3 μM compound): 27.25%; SCN3A % INHIB HTS IWQ 10 μM ([2]; 10 μM compound): −16.86% |
| CC(CNC(=O)c1ccc(S(=O)(=O)Nc2nccs2)cc1)Oc1ccccc1 (centres unmarked) [Example 161, N-(2-phenoxypropyl)-4-[(1,3-thiazol-2-ylamino)sulfonyl]benzamide] | 30.3 | 32.4 |  |
| N#Cc1cccc(OCC2CCCN(C(=O)c3ccc(S(=O)(=O)Nc4nccs4)cc3)C2)c1 (centres unmarked) [Example 278, 4-({3-[(3-Cyanophenoxy)methyl]piperidin-1-yl}carbonyl)-N-1,3-thiazol-2-yl-benzenesulfonamide] | 25.4 | 30 |  |
| COc1ccc(CC2COCCN(C(=O)c3ccc(S(=O)(=O)Nc4nccs4)cc3)C2)cc1F (centres unmarked) [Example 199, 4-{[6-(3-Fluoro-4-methoxybenzyl)-1,4-oxazepan-4-yl]carbonyl}-N-1,3-thiazol-2-yl-benzenesulfonamide] | 10.2 | 7.42 |  |
| O=C(c1ccc(S(=O)(=O)Nc2nccs2)cc1)N1CCCC1c1ccccc1Cl (centres unmarked) [Example 215, 4-{[2-(2-Chlorophenyl)pyrrolidin-1-yl]carbonyl}-N-1,3-thiazol-2-yl-benzenesulfonamide] | 30.5 | 51.9 | SCN3A INHIB INACT DRC EP IWQ EMAX ([2]; Emax of dose-response curve, inactivated state): 64.7; IC50 ([2]; read-out: SCN3A IWQ IC-50): 8.41 µM |
| O=C(NC1(Cc2ccccc2Cl)CC1)c1ccc(S(=O)(=O)Nc2nccs2)cc1 [Example 129, N-[1-(2-chlorobenzyl)cyclopropyl]-4-[(1,3-thiazol-2-ylamino)sulfonyl]benzamide] | 13.6 | 24.2 |  |
| O=C(c1ccc(S(=O)(=O)Nc2nccs2)cc1)N1CCOCC(Cc2ccccc2)C1 (centres unmarked) [Example 259, 4-[(6-Benzyl-1,4-oxazepan-4-yl)carbonyl]-N-1,3-thiazol-2-yl-benzenesulfonamide] | 5.51 | 19.6 |  |
| O=C(N[C@@H]1COC[C@@H]1c1ccc(F)cc1)c1ccc(S(=O)(=O)Nc2nccs2)cc1 [Example 179, N-[(3S,4R)-4-(4-fluorophenyl)tetrahydrofuran-3-yl]-4-[(1,3-thiazol-2-ylamino)sulfonyl]benzamide] | 9.95 | 15.9 |  |
| Cc1ccc(OCCNC(=O)c2ccc(S(=O)(=O)Nc3nccs3)cc2)cc1 [Example 154, N-[2-(4-methylphenoxy)ethyl]-4-[(1,3-thiazol-2-ylamino)sulfonyl]benzamide] | 28 | 30.8 |  |
| O=C(NC(CO)c1ccccc1Cl)c1ccc(S(=O)(=O)Nc2nccs2)cc1 (centres unmarked) [Example 56, N-[1-(2-chlorophenyl)-2-hydroxyethyl]-4-[(1,3-thiazol-2-ylamino)sulfonyl]benzamide] | 3.23 | 2.53 |  |
| O=C(NCc1c(F)cccc1Cl)c1ccc(S(=O)(=O)Nc2nccs2)cc1 [Example 86, N-(2-chloro-6-fluorobenzyl)-4-[(1,3-thiazol-2-ylamino)sulfonyl]benzamide] | 22.3 | 26.3 |  |
| COc1cccc(C2(NC(=O)c3ccc(S(=O)(=O)Nc4nccs4)cc3)CC2)c1 [Example 164, N-[1-(3-methoxyphenyl)cyclopropyl]-4-[(1,3-thiazol-2-ylamino)sulfonyl]benzamide] | 16.6 | 24.1 |  |
| CN(CCC(O)c1ccccc1)C(=O)c1ccc(S(=O)(=O)Nc2nccs2)cc1 (centres unmarked) [Example 235, N-(3-hydroxy-3-phenylpropyl)-N-methyl-4-[(1,3-thiazol-2-yl-amino)sulfonyl]benzamide] | 21.4 | -2.43 |  |
| CCN(C(=O)c1ccc(S(=O)(=O)Nc2nccs2)cc1)[C@H](CO)c1ccccc1 [Example 219, N-ethyl-N-[(1S)-2-hydroxy-1-phenylethyl]-4-[(1,3-thiazol-2-yl-amino)sulfonyl]benzamide] | 13.1 | 1.08 |  |
| CCN(C(=O)c1ccc(S(=O)(=O)Nc2nccs2)cc1)C(C)C(=O)c1ccccc1 (centres unmarked) [Example 209, N-ethyl-N-(1-methyl-2-oxo-2-phenylethyl)-4-[(1,3-thiazol-2-yl-amino)sulfonyl]benzamide] | 5.72 | -5.23 |  |
| O=C(c1ccc(S(=O)(=O)Nc2nccs2)cc1)N1CCOCC(O)(Cc2ccccc2)C1 (centres unmarked) [Example 258, 4-[(6-Benzyl-6-hydroxy-1,4-oxazepan-4-yl)carbonyl]-N-1,3-thiazol-2-yl-benzenesulfonamide] | 0.17 | 12 |  |
| O=C(NCCc1ccc(F)cc1)c1ccc(S(=O)(=O)Nc2nccs2)cc1 [Example 102, N-[2-(4-fluorophenyl)ethyl]-4-[(1,3-thiazol-2-ylamino)sulfonyl]benzamide] | 22.4 | 37.2 |  |
| O=C(NCCOc1ccccc1)c1ccc(S(=O)(=O)Nc2nccs2)cc1 [Example 168, N-(2-phenoxyethyl)-4-[(1,3-thiazol-2-ylamino)sulfonyl]benzamide] | 31.4 | 39.3 |  |
| O=C(N[C@@H]1CCC[C@@H]1c1ccccc1)c1ccc(S(=O)(=O)Nc2nccs2)cc1 [Example 138, N-[(1R,2R)-2-phenylcyclopentyl]-4-[(1,3-thiazol-2-ylamino)sulfonyl]benzamide] | 16.2 | 11.2 |  |
| Cc1cccc(C2CCCN2C(=O)c2ccc(S(=O)(=O)Nc3nccs3)cc2)c1 (centres unmarked) [Example 228, 4-{[2-(3-Methylphenyl)pyrrolidin-1-yl]carbonyl}-N-1,3-thiazol-2-yl-benzenesulfonamide] | 19.3 | 3.53 |  |
